Measured values from publication PMC2974656, “Selective killing of human immunodeficiency virus infected cells by non-nucleoside reverse transcriptase inhibitor-induced activation of HIV protease” (Retrovirology, 2010).

Key:
[1] = tested on: MT4-LTR-EGFP-IIIB cells; assay type: cell-based; conditions: 1 μM, 6 days, trypan blue
Description: In MT4-LTR-EGFP-IIIB cells, HIV expression could additionally be detected through long terminal repeat (LTR) driven expression of the gfp marker gene. As a control we used uninfected MT-4 cells or MT4-CMV-EGFP cells, constitutively expressing EGFP from a CMV promoter, respectively.
Cell lysates were harvested and analyzed by immunoblot using antiserum raised against HIV-1 CA. Positions of Gag and Gag-Pol processing products are marked at the right, molecular mass standards are indicated to the left (in kDa). […] Live cells were counted after trypan blue staining. Data represent mean values and standard deviations from three parallel cultures.

[2] = tested on: Gag processing in MT-4-IIIB cells; test: Immunoblot of Gag processing in chronically infected MT-4 cells; assay type: cell-based, HIV-1; conditions: 1 μM, day 2 post addition
[3] = tested on: intracellular Gag processing by HIV PR; assay type: cell-based, HIV-1; conditions: 293T cells, 44 h post transfection
Protocol: In previous studies, high concentrations of NNRTI (5 μM) were required to observe NNRTI mediated activation of intracellular HIV PR activity. […]. Towards this end, we developed a biochemical assay for gel independent quantitation of intracellular Gag processing by HIV PR in the context of a virus producing cell. We had previously shown that additional protein domains, consisting of small epitope tags or even the 27 kDa green fluorescent protein (EGFP), can be inserted between the MA and CA domains of the Gag and Gag-Pol polyproteins without affecting polyprotein production or processing by HIV PR [36]. Based on this, we designed a HIV reporter construct which contained a small N-terminal fragment ('alpha peptide') of Escherichia coli beta-galactosidase (β-Gal), flanked by two HIV PR recognition sites, between the MA and CA coding sequences of Gag (Figure 1A). […] This so called alpha complementation principle can be exploited for use in mammalian cells and has been employed for the establishment of various cell based biochemical assay systems. We reasoned that embedding of the small alpha peptide within the multi-domain polyproteins Gag or Gag-Pol, respectively, should impair its productive association with the omega subunit, while proteolytic release of the alpha peptide from the polyprotein by PR would allow the formation of enzymatically active β-Gal. This should allow us to monitor intracellular Gag and Gag-Pol processing through increased β-Gal activity.
Reconstituted β-Gal activity in cell lysates was measured by cleavage of the chromogenic substrate CPRG [42] as described in Methods.
The activity of β-Gal in cell lysates from transfected 293T cells was measured by enzymatic cleavage of the chromogenic β-Gal substrate chlorphenolred-β-D-galactopyranoside (CPRG, Roche; [42]). At 44 h post transfection, cells were briefly rinsed with PBS and suspended in reporter gene assay lysis buffer (Roche, 600 μl per 6-well dish) supplemented with a protease inhibitor mix (Roche). Cell suspensions were incubated for 10 min at room temperature and cell debris was subsequently removed by brief centrifugation. Five μl of supernatant were diluted in 96-well plates with 95 μl CPRG reaction buffer (50 mM potassium phosphate, pH 7.5, 1 mM MgCl2) and pre-warmed for 5 min to 37°C. 100 μl of pre-warmed reaction mix (100 μM CPRG in CPRG reaction buffer supplemented with protease inhibitor cocktail and 40 μM β-mercaptoethanol) were added and β-Gal mediated cleavage of CPRG was monitored by recording absorption at 592 nm every 2 min for 20 min at 37°C using a TECAN Safire multi-well reader. OD592 values were plotted over time and relative reaction rates (OD592/min) were determined from the initial linear velocities.

[4] = tested on: MT4-CMV-EGFP control cells; test: Cytotoxicity on uninfected control cells, EGFP fluorescence per well; assay type: cell-based
Protocol: The cytotoxicity of inhibitors was determined in parallel on MT4-CMV-EGFP control cells and on MT4-LTR-EGFP-IIIB virus producing cells, respectively.

[5] = molecular target: T1, RT heterodimer (p66/p51) (Human immunodeficiency virus type 1 group M subtype B, UniProt P04585); test: cell-based; assay type: cell-based, HIV-1
T1 construct: the bait protein (p66) was fused to the C-terminus of a chimeric receptor; expressed in transfected cells; host or cells: mammalian cells
Description: RT heterodimer formation was monitored using a mammalian two hybrid system described previously. In brief, the bait protein (p66) was fused to the C-terminus of a chimeric receptor consisting of the extracellular part of the erythropoietin receptor and the intracellular part of the leptin receptor incapable of STAT activation. The prey protein (p51) was coupled to a part of the cytoplasmic tail of the gp130 chain carrying several STAT3 recruitment domains. Interaction of bait and prey protein leads to functional complementation of STAT3 activity, which results in Epo dependent induction of a STAT3-responsive luciferase reporter gene. Enhancement of this interaction by the addition of compounds can thus be measured by an increase of luciferase expression.

[6] = tested on: 293T cells; test: Microscopically detectable impairment of cell growth of transfected 293T cells; assay type: cell-based; conditions: high NNRTI concentrations (5 μM and above)
Protocol: At 44 h post transfection, cell lysates were analyzed for β-Gal activity.

NS(=O)(=O)c1ccc(NC(=O)CSc2nnc(Br)n2-c2ccc(C3CC3)c3ccccc23)c(Cl)c1 [VRX-480773]
Live cell numbers, HIV infected MT4-LTR-EGFP-IIIB cells [1]: significant decrease | NNRTI mediated enhancement of Gag processing in virus producing cells [2]: decreased ratio of Gag to intermediate and fully mature processing products | Concentration showing strong β-Gal activity enhancement [3]: ~ 250 nM | CC50 [4]: 5.82 ± 1.44 µM | CC50 on uninfected control cells relative to virus producing cells [4]: ~ 10 fold | EC50 ([5]; concentration enhancing luciferase signal by 50% over control, read-out: Enhancement of RT-Dimerization EC50): 0.004 µM | Promotion of RT dimerization, in words ([5]; summary of Table 1): low nM range | Impairment of cell growth with decrease in β-Gal activity indicative of cytotoxic effects [6]: most pronounced
